Data: patent US11059886B1, “Methods and compositions for treating inflammatory or autoimmune diseases or conditions using GRM8 activators” (Flagship Pioneering Innovations V, Inc., priority 2018, dated 2021)

System: M2-like macrophages
Experiment: IL-8 secretion by M-CSF-differentiated human monocyte-derived M2-like macrophages (LEGENDplex bead-based immunoassay of supernatant)
Assay type: cell-based
Conditions: M2-like macrophages from human CD14+ monocytes
Description: CD14+ monocytes were isolated from human PBMCs using negative magnetic bead selection (Stemcell Technologies) on day 0. Cells were cultured with M-CSF to differentiate monocytes to macrophages. On day 6, cells were treated with L-AP4 (selective group III metabotropic glutamate receptor agonist) (Sigma-Aldrich), at concentrations 1 μM and 10 μM overnight. Supernatant was collected and LEGENDplex™ bead-based immunoassays (Biolegend) were performed to detect for changes in cytokines secreted.
Secretion of the inflammatory cytokine, IL-8, was decreased with the addition of the mGluR8 agonist in M2-like macrophages, consistent across multiple donors, as shown in Table 15 below.

SMILES: NC(CCP(=O)(O)O)C(=O)O [L-AP4]
- Fold change of IL-8 (Normalized to M2-like Macs + LPS with no compound treatment) (L-AP4 1 μM overnight): 0.646 fold change
- Fold change of IL-8 (Normalized to M2-like Macs + LPS with no compound treatment) (L-AP4 10 μM overnight): 0.866 fold change
